The results in this text go back to ChEMBL document CHEMBL1144510, “Synthesis of beta-ketophosphonate analogs of glutamyl and glutaminyl adenylate, and selective inhibition of the corresponding bacterial aminoacyl-tRNA synthetases” (Bioorg Med Chem, 2007).

Assay [1] is described as follows: Ratio of Ki for calf liver GluRS to Ki for Escherichia coli GluRS.
Assay [2] in a line: Inhibition of cytoplasmic calf liver GluRS. Details: species or system Bos taurus.
The nature of assay [3]: Inhibition of Escherichia coli GluRS.
Assay [4] in a line: Inhibition of Escherichia coli GlnRS.

For orientation: Ki means a measure of affinity in units of concentration, obtained from inhibition or displacement. Turning to `Nc1ncnc2c1ncn2[C@@H]1O[C@H](COP(=O)(O)CC(=O)[C@@H](N)CCC(=O)O)[C@@H](O)[C@H]1O`, the Ratio Ki in assay [1] came to 145. Also, the Ki amounted to 2600 µM in assay [2], 18 µM in assay [3] and 2800 µM in assay [4].
Turning to `Nc1ncnc2c1ncn2[C@@H]1OC(COS(=O)(=O)NC(=O)[C@@H](N)CCC(=O)O)[C@@H](O)[C@H]1O` (some centres undefined), in assay [1], the Ratio Ki is 25. Also, the Ki is 0.07 µM in assay [2] and 0.0028 µM in assay [3].
For `NC(=O)CC[C@H](N)C(=O)CP(=O)(O)OC[C@H]1O[C@@H](n2cnc3c(N)ncnc32)[C@H](O)[C@@H]1O`, the Ki in assay [3] was 2900 µM; in assay [4], 650 µM.
